Measured values published in patent US6489475B2, “Method of producing heterocyclic derivatives” (Sankyo Company, Limited, priority 1994, dated 2002).
Marks after values point to notes of the source that are not given here.

How the values were obtained:
plasma = experiment: Plasma lipoperoxidation inhibitory effect (copper sulfate, malondialdehyde by thiobarbituric acid method); format: biochemical, rabbit; settings: concentration 10^-5M; 37°C, 3 hours; malondialdehyde production inhibitory ratio
Description: Plasma Lipoperoxidation Inhibitory Effect
The blood was taken from male Japanese white rabbits weighing 2-2.5 kg under anesthesia and heparinized plasma was separated by a conventional method. To the plasma (2.0 ml) was added DMSO or a solution (20 μl, final concentration 10^−5 M) of test compound dissolved in DMSO, and aqueous copper sulfate solution (final concentration 5 mM) was added immediately thereafter. The mixture was incubated at 37° C. for 3 hours. After the completion of the incubation, 20% trichloroacetic acid was added to stop the reaction. Then, the mixture was centrifuged at 4° C., 4,500 rpm for 15 minutes. The lipoperoxide in the supernatant thus obtained was assayed as malondialdehyde upon color development by thiobarbituric acid method. The activity of the test compound was expressed as malondialdehyde production inhibitory ratio (%), namely, the proportion of inhibition of production of malondialdehyde as compared to control.

LDL = LDL peroxidation inhibitory effect (copper sulfate, malondialdehyde by thiobarbituric acid method); format: biochemical, rabbit; settings: concentration 10^-5M; 37°C, 24 hours; malondialdehyde production inhibitory ratio
Description: LDL Peroxidation Inhibitory Effect
Male Japanese white rabbits weighing 2-2.5 kg were bred on 100 g per day of a high cholesterol feed [added with cholesterol (1%), Clea Japan, Inc.] for 4 weeks. The blood was taken from carotid and plasma was obtained. Then, LDL was fractionated from the plasma by ultracentrifugation, dialyzed for one day and preserved at 4° C. LDL (400 μg) and aqueous copper sulfate solution (final concentration 5 μM) were added to bufferized Ham F-10 medium (2 ml, GIBCO, USA). DMSO or a solution (20 μl) of test compound dissolved in DMSO was added and the mixture was incubated at 37° C. for 24 hours. After the completion of the incubation, LDL peroxide in medium was allowed to develop color by thiobarbituric acid method and assayed as malondialdehyde. The activity of the test compound was expressed as malondialdehyde production inhibitory ratio (%), namely, the proportion of inhibition of production of malondialdehyde as compared to control.

ACAT = ACAT inhibitory activity (small intestine mucosa microsomes, [1-14C]-oleoyl CoA, cholesteryl oleate production); format: biochemical, rabbit; settings: inhibition of cholesteryl oleate production vs control
Description: A high cholesterol feed [a feed added with cholesterol (1%), Clea Japan, Inc.] was fed to male Japanese white rabbits weighing 2-2.5 kg at 100 g per day and the rabbits were bred for 4 weeks. The rabbits were killed by bleeding under anesthesia and small intestine was removed. The mucous membrane of small intestine was peeled, collected and homogenated. The homogenate was centrifuged at 4° C. and 10,000 rpm for 15 min. The obtained supernatant was further centrifuged at 4° C. and 41,000 rpm for 30 minutes to give microsomal fractions. Using this microsomal suspension as an enzyme sample, dimethyl sulfoxide (DMSO, 5 μl) or a test compound dissolved in DMSO (test compound solution, 5 μl), and a reaction substrate [1-^14C]-oleoyl CoA were added to a reaction buffer. After incubation at 37° C. for 5 minutes, a chloroform-methanol mixture was added to stop the reaction. Water was added thereto and mixed, and chloroform layer was separated. The solvent was evaporated to dryness, and the residue was dissolved in hexane. The mixture was subjected to thin layer chromatography using a silica gel plate. The spots of cholesteryl oleate on the silica gel plate were scraped, and quantitatively assayed on a liquid scintillation counter. The ACAT inhibitory activity of the test compound was expressed as a proportion (%) of inhibition of cholesteryl oleate, namely, the proportion of inhibition of cholesteryl oleate production as compared to control.

Male Wister rats = experiment: Serum total cholesterol reducing effect in rats on high cholesterol feed; format: in vivo; settings: oral, once a day for 3 days, rat
Description: Serum Total Cholesterol Reducing Effect
Male Wister rats weighing 180-200 g were bred under free access to a high cholesterol feed [added with cholesterol (1%), cholic acid (0.5%) and coconut oil (10%), Clea Japan, Inc.] for 3 days, during which period a test compound (10-100 mg/kg) suspended in 5% gum arabic solution was forcibly administered once a day orally for 3 days. Only 5% gum arabic solution was administered to control animals. After final administration, the test animals were fasted for 5 hours and the blood was taken. The serum total cholesterol level was determined using a commercially available assay kit (cholesterol-E-Test Wako, Wako Pure Chemical Industries, Ltd.). The activity of the test compound was expressed as a proportion (%) of reduction of serum total cholesterol level, namely, the proportion of reduction of serum total cholesterol as compared to control.

Compound | Result of Exp. Ex. 4: plasma lipoperoxidation inhibition (plasma) [%] | Result of Exp. Ex. 3: LDL peroxidation inhibition (LDL) [%] | Result of Exp. Ex. 1: ACAT inhibition (ACAT; concentration 10^-5M) | Result of Exp. Ex. 2: reduction of serum total cholesterol (Male Wister rats; dose 30 mg/kg/day) | Result of Exp. Ex. 1: ACAT inhibition (ACAT; concentration 10^-4M) | Result of Exp. Ex. 2: reduction of serum total cholesterol (Male Wister rats; dose 10 mg/kg/day) | Result of Exp. Ex. 2: reduction of serum total cholesterol (Male Wister rats; dose 100 mg/kg/day)
CCCCCCC(C)(C)C(=O)Nc1c(C)cc(C)c2c1N(CC)CC2 [Example 13] | 87.1 | 82.4 | 96.0 ** % | 28.4 ** % | – | – | –
Cc1cc(C)c(NC(=O)C(C)(C)C)c2c1CCN2CCC(C)C [Example 31] | 90.8 | 90.3 | 93.8 ** % | 49.0 ** % | – | – | –
CCCCCCN1CCc2c(C)cc(C)c(NC(=O)C(C)(C)CCC(=O)O)c21 [Example 20] | 91.1 | 67.8 | – | – | 22.7 * % | 7.8 * % | –
CCCCC(C)(C)C(=O)Nc1c(C)cc(C)c2c1N(CC)CC2 [Example 6] | 37.4 | 24.8 | 99.8 ** % | 53.3 ** % | – | – | –
Cc1cc(C)c(NC(=O)N(Cc2ccc3c(c2)Cc2ccccc2-3)C2CCCCCC2)c(C)c1 [YM-750, 1-cycloheptyl-1-[(2-fluorenyl)methyl]-3-(2,4,6-trimethylphenyl)urea, reference compound] | – | 0 | 92.3 ** % | 43.8 ** % | – | – | –
CCCCCCN1CCc2c(C)cc(C)c(NC(=O)C(C)(C)COC(C)=O)c21 [Example 29] | 91.1 | 91.9 | 86.6 ** % | 6.9 ** % | – | – | –
CCCCCCN1CCc2c(C)cc(C)c(NC(=O)CC(C)(C)CC(=O)O)c21 [Example 18] | 87.1 | 34.0 | – | 22.3 ** % | 69.6 * % | – | –
CCOCCN1CCc2c(C)cc(C)c(NC(=O)C(C)(C)C)c21 [Example 24] | 90.5 | 42.2 | 97.1 ** % | 28.3 ** % | – | – | –
CCCCCCN1CCc2c(C)cc(C)c(NC(=O)C(C)(C)CCCCCC)c21 [Example 15] | 90.1 | 12.3 | 93.1 ** % | – | – | 35.0 * % | –
CC(=O)OCCN1CCc2c(C)cc(C)c(NC(=O)C(C)(C)C)c21 [Example 22] | 92.8 | 40.6 | 78.5 ** % | – | – | – | 38.6 *** %
CCCCN1CCc2c(C)cc(C)c(NC(=O)C(C)(C)CCCC)c21 [Example 9] | 81.6 | 93.7 | 81.3 ** % | 51.3 ** % | – | – | –
Cc1cc(C)c(NC(=O)C(C)(C)C)c2c1CCN2CC(C)C [Example 32] | 89.1 | 85.3 | 93.9 ** % | 57.4 ** % | – | – | –
CCCCN1CCc2c(C)cc(C)c(NC(=O)C(C)(C)C)c21 [Example 8] | 85.1 | 91.9 | 99.7 ** % | 48.0 ** % | – | – | –
CCCCCCN1CCc2c1cc(C)c(NC(=O)C(C)(C)C)c2C [Example 2, N-(1-hexyl-4,6-dimethylindolin-5-yl)-2,2-dimethylpropanamide] | 95.8 | 99.5 | 59.9 ** % | – | – | – | –
